Series [1] is described as follows: Hepatic microsomal stability, rat. The class given is in vitro ADME, rat (Sprague-Dawley). As for the experimental part: (§1) Hepatic microsmal assays were performed with compound 5114 in human and rat (Sprague-Dawley). Protein concentrations of 0.4 (human) and 0.2 mg/mL (rat) with an NADPH regenerating cofactor system (2.6 mM NADP+, 6.6 mM glucose-6-phosphate, 0.8 U/mL glucose-6-phosphate dehydrogenase, and 6.6 mM magnesium chloride) were used. A 100 μM 20% DMSO/80% acetonitrile working stock of each of the compounds was diluted 100 fold resulting in 1 μM compound/1% final organic reaction concentrations. Time points were removed at 0 and 60 minutes. At each time point, 100 μL of the incubation suspension was added to 200 μL of acetonitrile containing internal standard (tolbutamide), followed by centrifugation at 3,220 rcf for 10 minutes. Two hundred (200) μL of the resulting supernatants were removed, dried under nitrogen and reconstituted in 100 μL of 2 mM ammonium acetate, 0.1% formic acid in 50% methanol prior to analysis by LC/MS/MS. Testosterone and dexamethasone were used as reference compounds.

Series [2] in a line: Hepatic microsomal stability, human. The class given is in vitro ADME. As for the experimental part: as §1
For series [3] the following is noted: PAMPA, 5 h, 10 μM, pH 7.4. For orientation: The PAMPA barrier holds no transporters, so it reflects passive diffusion.
Protocol: The target concentration in the assay was 10 μM, prepared by diluting (1000-fold) the 10 mM stock solutions in DMSO into PBS, pH 7.4. The final DMSO concentration was 0.1%. The 10 μM solutions were added, 300 μL, to wells in the donor plate. The receiver plate, which contained 200 μL of PBS, pH 7.4 per well, was placed in the donor plate and the assembly was incubated for 5 hours at ambient temperature. At the end of the incubation period the plates were separated and the compound concentrations in each solution were determined by LC/MS/MS. The assay was performed in triplicate.
C0 is the initial concentration in the donor well (μM)
CD(t) is the concentration in the donor well after incubation (μM)
CA(t) is the concentration in the acceptor well after incubation (μM)
VD is the volume in the donor well (0.3 mL)
VA is the volume in the acceptor well (0.2 mL)
CE is (CD(t)VD+CA(t)VA)/(VD+VA)
A is the filter area (0.3 cm2)
t is the incubation time (18,000 s).
For series [4], the system named is different kinases. Put plainly: Kinase activity screening by Millipore UK Ltd, percent kinase activity at 300 nM of compound (Table 31). The class given is biochemical. As for the experimental part:
Protocols for Kinase Activity Screening: Kinase screening was performed by Millipore UK Ltd. Kinase dilution buffer composition: 20 mM MOPS, 1 mM EDTA, 0.01% Brij-35, 5% Glycerol, 0.1% b-mercaptoethanol, 1 mg/mL BSA.

The subject of series [5] is Caco-2 cells. Put plainly: Inhibition of Caco-2 cells (MTS cell proliferation). To be noted: for inhibition at 0.4 µM / inhibition at 0.8 µM / inhibition at 1.6 µM / inhibition at 3.2 µM / inhibition at 6.25 µM / inhibition at 12.5 µM / inhibition at 25 µM / inhibition at 50 µM / inhibition at 100 µM / IC50: Homo sapiens; for inhibition at 0.4 µM: 0.400 μM; for inhibition at 0.4 µM / inhibition at 0.8 µM / inhibition at 1.6 µM / inhibition at 3.2 µM / inhibition at 6.25 µM / inhibition at 12.5 µM / inhibition at 25 µM / inhibition at 50 µM / inhibition at 100 µM: 72 hours; for inhibition at 0.8 µM: 0.800 μM; for inhibition at 1.6 µM: 1.600 μM; for inhibition at 3.2 µM: 3.200 μM; for inhibition at 6.25 µM: 6.250 μM; for inhibition at 12.5 µM: 12.500 μM. The class given is cell-based. On the procedure: Inhibition of Caco-2 Cells Cells: Caco-2 cells, ATCC Passage 33, Mycoplasma free. Medium: DMEM Medium (GIBCO Cat #11995073) supplemented with 10% fetal bovine serum (Hyclone Cat #SH30396.03). Seeding: 3,000 cells/well (100 μL) into 96-wells plate, incubated overnight at 37° C. in a humidified, 5% CO2 atmosphere. […] Fifty microliters (50 μL) of diluted compounds were added into each well. The final concentrations of the positive control and test compounds were shown in the graphs. The cells were incubated for 72 hours after addition of the test compounds. MTS: 15 uL of MTS solution (Promega Cat #G5430) was added into each well and incubated with cells for 4 hours at 37° C. in a humidified, 5% CO2 atmosphere. Measurement: Absorbance at 490 nm was measured using MD Spectramax Plus384 spectrophotometer. The regression curves were calculated by the GraphPad Prism 5 using “log(inhibitor) vs response—variable slope”. Calculation: % of inhibition=(ODzero ctrl−OD compound)/ODzero ctrl*100.

[6] abbreviates: replicate 1, read-out: % of inhibition 1.
Where [7] appears, read: replicate 2, read-out: % of inhibition 2.

Read-outs that look alike come from different tables or passages of the source.

Consider `C[C@@H]1C[C@H]2[C@@H]3CCC4=CC(=O)C=C[C@]4(C)[C@@]3(F)[C@@H](O)C[C@]2(C)[C@@]1(O)C(=O)CO` [Dexamethasone], for which the “% remaining after incubation, Rat Microsomes” value in series [1] (Sprague-Dawley, rat, microsomes, 1 h, 1 μM) is given as 91%. Besides, the “% remaining after incubation, Human Microsomes” value in series [2] (human, microsomes, 1 h, 1 μM) is on record as 85%. In addition, the “Mass Retention R” value in series [3] was determined as 9%.
Take `Nc1ccc2c(c1)CN(c1nccc(/C=C3\NC(=O)NC3=O)n1)CC2` [Example 64, (Z)-5-((2-(7-amino-3,4-dihydroisoquinolin-2(1H)-yl)pyrimidin-4-yl)methylene)imidazolidine-2,4-dione]: in series [4], the “Percent Kinase Activity of Enzyme CK1” value amounted to 81%, the “Percent Kinase Activity of Enzyme CK1g2” value is on record as 75%, the “Percent Kinase Activity of Enzyme CK2” value worked out at 65% and the “Percent Kinase Activity of Enzyme Pim-1” value is 83%. In series [4], the “Percent Kinase Activity of Enzyme Pim-2” value was 81% and the “Percent Kinase Activity of Enzyme Pim-3” value stood at 97%.
On to `NCC1CCN(c2nccc(/C=C3\NC(=O)NC3=O)n2)CC1` [Example 65, (Z)-5-((2-(4-(aminomethyl)piperidin-1-yl)pyrimidin-4-yl)methylene)imidazolidine-2,4-dione], for which, in series [4], the “Percent Kinase Activity of Enzyme CK1” value is 97%, the “Percent Kinase Activity of Enzyme CK1g2” value stood at 96%, the “Percent Kinase Activity of Enzyme CK2” value is reported as 94% and the “Percent Kinase Activity of Enzyme Pim-1” value amounted to 92%. Further, in series [4], the “Percent Kinase Activity of Enzyme Pim-2” value amounted to 78% and the “Percent Kinase Activity of Enzyme Pim-3” value turned out to be 76%.
Take `Nc1cccc2c1CCN(c1nccc(/C=C3\NC(=O)NC3=O)n1)C2` [Example 66, (Z)-5-((2-(5-amino-3,4-dihydroisoquinolin-2(1H)-yl)pyrimidin-4-yl)methylene)imidazolidine-2,4-dione]: in series [4], the “Percent Kinase Activity of Enzyme CK1” value amounted to 98%, the “Percent Kinase Activity of Enzyme CK1g2” value came out at 77%, the “Percent Kinase Activity of Enzyme CK2” value is 78% and the “Percent Kinase Activity of Enzyme Pim-1” value was found to be 91%. In series [4], the “Percent Kinase Activity of Enzyme Pim-2” value was found to be 86% and the “Percent Kinase Activity of Enzyme Pim-3” value is listed as 96%.
Consider `CN(c1nccc(/C=C2\NC(=O)NC2=O)n1)[C@H]1CCCNC1` [Example 67, (S,Z)-5-((2-(methyl(piperidin-3-yl)amino)pyrimidin-4-yl)methylene)imidazolidine-2,4-dione], for which, in series [4], the “Percent Kinase Activity of Enzyme CK1” value worked out at 104%, the “Percent Kinase Activity of Enzyme CK1g2” value is listed as 111%, the “Percent Kinase Activity of Enzyme CK2” value was 94% and the “Percent Kinase Activity of Enzyme Pim-1” value is on record as 98%. In series [4], the “Percent Kinase Activity of Enzyme Pim-2” value amounted to 99% and the “Percent Kinase Activity of Enzyme Pim-3” value came out at 114%.
Consider `O=C1NC(=O)/C(=C/c2ccnc(N3CCC(CNCc4ccc5ccccc5n4)CC3)n2)N1` [Example 68, (Z)-5-((2-(4-(((quinolin-2-ylmethyl)amino)methyl)piperidin-1-yl)pyrimidin-4-yl)methylene)imidazolidine-2,4-dione], for which, in series [4], the “Percent Kinase Activity of Enzyme CK1” value is reported as 97%, the “Percent Kinase Activity of Enzyme CK1g2” value came to 84%, the “Percent Kinase Activity of Enzyme CK2” value is on record as 109% and the “Percent Kinase Activity of Enzyme Pim-1” value is 75%. Further, in series [4], the “Percent Kinase Activity of Enzyme Pim-2” value is 69% and the “Percent Kinase Activity of Enzyme Pim-3” value was found to be 63%.
For `O=C1NC(=O)/C(=C/c2ccnc(N3CCC(CNCc4cccc(-c5ccsc5)n4)CC3)n2)N1` [Example 69, (Z)-5-((2-(4-((((6-(thiophen-3-yl)pyridin-2-yl)methyl)amino)methyl)piperidin-1-yl)pyrimidin-4-yl)methylene)imidazolidine-2,4-dione], in series [4], the “Percent Kinase Activity of Enzyme CK1” value came to 92%, the “Percent Kinase Activity of Enzyme CK1g2” value was determined as 76%, the “Percent Kinase Activity of Enzyme CK2” value is on record as 106% and the “Percent Kinase Activity of Enzyme Pim-1” value is on record as 46%. Also, in series [4], the “Percent Kinase Activity of Enzyme Pim-2” value is 86% and the “Percent Kinase Activity of Enzyme Pim-3” value worked out at 59%.
Regarding `CNC(=O)c1cc(Oc2ccc(NC(=O)Nc3ccc(Cl)c(C(F)(F)F)c3)cc2)ccn1` [Sorafenib], in series [5] (setting [6]), the inhibition (commonly the change of the read-out against control, counted positive when it falls) at 0.4 µM was 0.049%; the inhibition at 0.8 µM stood at 9.97%; the inhibition at 1.6 µM is 14.3%; the inhibition at 3.2 µM was 17%. For the same compound, in series [5] (setting [6]), the inhibition at 6.25 µM stood at 19.9%, the inhibition at 12.5 µM was 76.8%, the inhibition at 25 µM came to 100% and the inhibition at 50 µM is 102%. The inhibition at 100 µM in series [5] (setting [6]) amounted to 84.1%. In series [5] (setting [7]), the inhibition at 0.4 µM stood at 0.315%, the inhibition at 0.8 µM is 6.24%, the inhibition at 1.6 µM was 11.4% and the inhibition at 3.2 µM was 9.39%. In addition, in series [5] (setting [7]), the inhibition at 6.25 µM is 23.5%, the inhibition at 12.5 µM was 76.3%, the inhibition at 25 µM is 98.5% and the inhibition at 50 µM was determined as 99%. The inhibition at 100 µM in series [5] (setting [7]) came to 96.7%. Also, the IC50 in series [5] (Table 18, read-out: Caco-2* 50% inhibition concentration) was found to be 8.78 µM. Also, in series [5] (Table 26, 72 hours, read-out: 50% viability conc.), the IC50 is 8.77 µM. Further, the IC50 in series [5] (Table 26, 72 hours, read-out: IC50) was 9.37 µM. In addition, the Maximal inhibition % in series [5] (Table 26, 72 hours) was determined as 100%.
Turning to `C[C@]12CC[C@H]3[C@@H](CCC4=CC(=O)CC[C@@]43C)[C@@H]1CC[C@@H]2O` [Testosterone], in series [1] (1 μM compound, 0.2 mg/mL protein, NADPH regenerating system, 60 minutes), the “% remaining after incubation, Rat Microsomes” value is 0.6%. Also, the “% remaining after incubation, Human Microsomes” value in series [2] (1 μM compound, 0.4 mg/mL protein, NADPH regenerating system, 60 minutes) is listed as 42%.

The values above are taken from patent US9073903B2, “Imidazole-2,4-dione inhibitors of casein kinase 1” (Jasco Pharmaceuticals, LLC, priority 2010, dated 2015).
